Data taken from patent US8258123B2, “C-19 steroids for cosmetic and further uses” (ErlaCos GmbH, priority 2007, dated 2012).
“Also recorded” adds a separate entry of the source.

What was measured:
androgen receptor (AR) = experiment: Binding affinity to the androgen receptor against DHT as reference compound
Protocol: The compounds used according to the present invention preferably have a binding affinity to the androgen receptor (AR) higher than DHT; more preferably the binding affinity is high by having affinity specific to AR in a range of IC50≧500 nM, preferably IC50≧100 nM and more preferably IC50≧50 nM, wherein IC50 is defined as the concentration of the compound required to reduce specific binding of a reference compound, 5α-dihydrotestosterone (DHT), by 50%. The IC50-values can be determined by known methods using radioactively labelled DHT as reference compound, for example by a standard dextran-coated charcoal adsorption method as described by Raynaud et al., J. Steroid Biochem. 6, 615-622 (1975), using 1 nM reference concentrations of radiolabeled [^3H]-DHT, or by similar IC50 determination methods described in the literature. Because the concentration of AR in the target cell is very low, typically in the nanomolar range approximately, differences in binding constants to the order contemplated in the present invention are significant.

[1] = system: skin over the predilection areas of cellulite; experiment: Topical treatment of the skin over the predilection areas of cellulite; type: in vivo
Excerpt: The border between the two layers is made up of collagen fibres. Strengthening this border by increasing its collagen content by stimulating the fibroblasts to produce more collagen leads to a marked improvement of the appearance of cellulite.

sebaceous glands = experiment: Topical application to the face and other acne-prone skin areas; type: in vivo
Excerpt: (§1) Not only in theory but also in practice the compounds of the present invention and in particular 4-OHT and its related analogous compounds are the ideal anabolic substances. […] This can be deduced from three different topical applications to the skin.

aromatase = target: T1, aromatase (Homo sapiens, UniProt P11511); experiment: Aromatization by aromatase
T1 sequence (P11511 1-503): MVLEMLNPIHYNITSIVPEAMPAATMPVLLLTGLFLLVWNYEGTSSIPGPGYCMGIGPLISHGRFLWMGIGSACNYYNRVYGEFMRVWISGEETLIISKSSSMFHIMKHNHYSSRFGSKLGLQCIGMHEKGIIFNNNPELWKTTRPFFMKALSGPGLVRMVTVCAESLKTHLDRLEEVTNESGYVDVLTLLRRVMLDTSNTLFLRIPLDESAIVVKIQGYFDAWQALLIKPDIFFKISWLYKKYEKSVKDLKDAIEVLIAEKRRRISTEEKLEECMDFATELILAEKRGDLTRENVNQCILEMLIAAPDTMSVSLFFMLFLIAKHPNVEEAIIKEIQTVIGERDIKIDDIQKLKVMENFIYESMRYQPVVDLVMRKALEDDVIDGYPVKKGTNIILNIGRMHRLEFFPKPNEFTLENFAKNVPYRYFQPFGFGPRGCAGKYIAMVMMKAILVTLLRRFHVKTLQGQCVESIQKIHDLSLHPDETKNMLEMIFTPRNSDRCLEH

5α-reductase [2] = experiment: 5α-reductase inhibition; type: biochemical
Excerpt: According to the present invention, the use may correspondingly be determined by selecting the C-19 steroid compound having the aforementioned effects or properties (iii) to (vi) alone or in combination. These effects or properties (iii) to (vi) can be measured by correspondingly known methods. For example, 5α-reductase activity can be measured by a method described by Mitamura et al., Analytical Sciences 21, 1241-1244 (2005). The use according to the present invention may be further determined by a suitable administrated amount of the compound, and by an appropriate application condition, such as type of user/patient, or type of target site or organ enabling the aforementioned effects or properties (iii) to (vi) alone or in combination.

5α-reductase [3] = experiment: Reduction by 5α-reductase
striae = experiment: Topical treatment of striae; type: in vivo; settings: suitable formulation containing 4-OHT
Excerpt: Striae have also been treated according to the invention with a suitable formulation containing 4-OHT. […] Whereas striae rubrae are more disturbing on a fair skin striae albae are a considerable problem for dark skin.

[4] = system: apocrine sweat glands in the axilla; experiment: Topical application to the axilla, body odour; type: in vivo
Excerpt: as §1
The majority of glands relevant for body odor are situated in the subcutaneous tissue. It is therefore difficult to apply effective substances directly. To this end a substance is preferably included facilitating the penetration into the skin.

hair follicles = experiment: Topical treatment of body skin areas, hair growth; type: in vivo
Excerpt: The situation in the body regions other than the scalp however is different. Sometimes hair growing excessively on other parts of the body is a nuisance. They are conventionally removed by depilation or epilation. Hot wax epilation restores the growth of hair in many dorming hair follicles (telogen hair) thereby increasing the frequency and painfulness of hot wax epilation. Pubic and axillary hair is sparse or absent in CAIS. Corresponding cell cultures contain as androgen predominantly testosterone and only traces of DHT. Growth of unwanted hair in the corresponding body regions cannot be prevented by blocking of 5α-reductase. According to the present invention, this is possible by blocking the androgen receptor against DHT. In almost all hair follicles (with the exception of scalp, pubic and axillary hair) specific cells of the dermal papilla are driven by DHT to promote hair growth.

[5] = loaded to solid lipid nanoparticles; cited from earlier work
forehead skin = settings: applied to the forehead skin of patients with acne, 1% solution; cited from earlier work

| Compound | binding affinity to the AR compared with DHT (androgen receptor (AR)) | adipose tissue / adipocytes ([1]; topical) | topical formulation compared with 4-OHA ([1]; topical formulation, collagen content of the skin) | solidification of the skin ([1]; topical preparation, within four weeks) | concentration of collagen fibres ([1]; topical, skin areas over the buttocks) | androgenic effect after application to the skin ([1]; topical, hair growth or pimples) | size and capability of sebaceous glands (sebaceous glands) | aromatization (aromatase) | inhibition of 5α-reductase (5α-reductase [2]) | 5α-reduction (5α-reductase [3]) | striae rubrae and striae albae (striae) | thickness of the skin (striae) | effect on body odor of the combination with a penetration enhancer ([4]; combination with dimethyl isosorbide (Arlasolve DMI)) | androgen dependent production of volatile fatty acids responsible for body odour ([4]; topical, axilla) | type of hair produced by the follicles (hair follicles; after six months) | growth of body hairs (hair follicles; body regions other than scalp) | increase in CPA absorption by the skin [5] | sebum excretion rate (forehead skin) |
| --- | --- | --- | --- | --- | --- | --- | --- | --- | --- | --- | --- | --- | --- | --- | --- | --- | --- | --- |
| C[C@]12CC[C@H]3[C@@H](CCC4=C(O)C(=O)CC[C@@]43C)[C@@H]1CC[C@@H]2O [4-OHT, 4,17β-dihydroxyandrost-4-en-3-one] | higher affinity to the AR than DHT | marked diminution and shrinkage of the adipocytes; also recorded: shrinkage of adipose tissue | superior than 4-OHA | considerable solidification of the skin | anabolically increases the concentration of collagen fibres | no androgenic effect whatsoever could be observed | reduces size and capability of sebaceous glands | escapes aromatization or 5α-reduction | able to inhibit this enzyme (probably both isoforms) | escapes aromatization or 5α-reduction | makes them disappear | increasing thickness of the skin | Optimal results | immediately prevents the androgen dependent production of volatile fatty acids | most of the follicles are producing solely vellous hair | grow slower and less dense and in addition thinner and blonder |  |  |
| CC(=O)O[C@]1(C(C)=O)CC[C@H]2[C@@H]3C=C(Cl)C4=CC(=O)[C@@H]5C[C@@H]5[C@]4(C)[C@H]3CC[C@@]21C [Cyproterone acetate, cyproterone acetate] |  |  |  |  |  |  |  |  |  |  |  |  |  |  |  |  | 2-3 fold | not able to reduce the sebum excretion rate |
